This test deals with CD2F1 mice, L1210 leukemia ip, survival T/C. Kind of test: NCI In Vivo Anticancer Drug Screen. Data for tumor model L1210 Leukemia (intraperitoneal) in CD2F1 (CDF1) mice. Particulars: endpoint: mean survival time, higher = longer survival. In outline:
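Compound-dosed mice with transplantable tumor versus matched vehicle controls; endpoint ratio T/C reported.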

[1] abbreviates: dose: 100.0 mg/kg/injection, schedule: Q01DX001 (ip), vehicle: saline.
Setting [2] is: dose: 100.0 mg/kg/injection, schedule: Q04DX003 (ip), vehicle: saline with Tween-80.
Where [3] appears, read: dose: 200.0 mg/kg/injection, schedule: Q04DX003 (ip), vehicle: saline with Tween-80.
[4] abbreviates: dose: 400.0 mg/kg/injection, schedule: Q04DX003 (ip), vehicle: saline with Tween-80.
Setting [5] is: dose: 200.0 mg/kg/injection, schedule: Q01DX001 (ip), vehicle: saline with Tween-80.
The mark [6] stands for this setting: dose: 400.0 mg/kg/injection, schedule: Q01DX001 (ip), vehicle: saline with Tween-80.
The mark [7] stands for this setting: dose: 50.0 mg/kg/injection, schedule: Q01DX009 (ip), vehicle: saline.
The mark [8] stands for this setting: dose: 100.0 mg/kg/injection, schedule: Q01DX001 (ip), vehicle: saline with Tween-80.
Where [9] appears, read: dose: 100.0 mg/kg/injection, schedule: Q01DX009 (ip), vehicle: saline with Tween-80.
[10] abbreviates: dose: 400.0 mg/kg/injection, schedule: Q01DX009 (ip), vehicle: saline with Tween-80.
Where [11] appears, read: dose: 25.0 mg/kg/injection, schedule: Q01DX009 (ip), vehicle: Klucel (hydroxypropylcellulose) (HPC).
Setting [12] is: dose: 50.0 mg/kg/injection, schedule: Q01DX009 (ip), vehicle: Klucel (hydroxypropylcellulose) (HPC).

Each structure is given as a SMILES string. Values joined by “and” are separate entries in the source; they are usually repeats but may differ in a detail not shown here. Identical values can stand only once. Inconclusive results and toxic doses are left out.

In the case of `CCOC(=O)NC(=O)OCC`, the T/C by setting is: (dose: 100.0 mg/kg/injection, schedule: Q01DX001 (ip), vehicle: saline sonified) 102 % of control; (dose: 200.0 mg/kg/injection, schedule: Q01DX001 (ip), vehicle: saline sonified) 107 % of control; (dose: 400.0 mg/kg/injection, schedule: Q01DX001 (ip), vehicle: saline sonified) 100 % of control.
Consider `CCC12CN3CCc4c([nH]c5ccccc45)C(C(=O)OC)(c4cc5c(cc4OC)N(C)C4C(O)(C(=O)OC)C(OC(C)=O)C6(CC)C=CCN7CCC54C76)CC(C3)C1O2.CI.CO.[I][Hg][I]` (centres undefined), for which the T/C under setting [1] was 100 % of control.
As for `CC[O+](CC)CC`, the T/C by setting is: (dose: 12.5 mg/kg/injection, schedule: Q04DX002 (ip), vehicle: saline) 95 % of control; (dose: 25.0 mg/kg/injection, schedule: Q04DX002 (ip), vehicle: saline) 91 % of control; (dose: 50.0 mg/kg/injection, schedule: Q04DX002 (ip), vehicle: saline) 95 % of control.
Regarding `CC1CC(C)(C)CC2CC(C(=O)O)(C(=O)O)CC12` (centres undefined), the T/C is, setting by setting: (dose: 100.0 mg/kg/injection, schedule: Q04DX003 (ip), vehicle: saline sonified) 102 % of control; (dose: 200.0 mg/kg/injection, schedule: Q04DX003 (ip), vehicle: saline sonified) 96 % of control; (dose: 400.0 mg/kg/injection, schedule: Q04DX003 (ip), vehicle: saline sonified) 100 % of control.
Turning to `Nc1ncnc2c1ncn2C1OC(CF)C(O)C1O` (centres undefined), the T/C is, setting by setting: under setting [1], 104 % of control; (dose: 200.0 mg/kg/injection, schedule: Q01DX001 (ip), vehicle: saline) 98 % of control.
Turning to `CC(=O)CC(C)=O.CC(=O)CC(C)=O.O.O.[Co]`, the T/C is 111 % of control (dose: 22.0 mg/kg/injection, schedule: Q04DX003 (ip), vehicle: saline with Tween-80); 97 % of control (dose: 22.0 mg/kg/injection, schedule: Q04DX003 (ip), vehicle: saline); 114 % of control (dose: 33.0 mg/kg/injection, schedule: Q04DX003 (ip), vehicle: saline with Tween-80); 102 % of control (dose: 33.0 mg/kg/injection, schedule: Q04DX003 (ip), vehicle: saline); 109 % of control (dose: 50.0 mg/kg/injection, schedule: Q04DX003 (ip), vehicle: saline with Tween-80); 108 % of control (dose: 50.0 mg/kg/injection, schedule: Q04DX003 (ip), vehicle: saline).
`CC(O)/C=C/c1ccccc1O` (centres undefined): the T/C was 90 % of control under setting [2], 96 % of control under setting [3] and 93 % of control under setting [4].
In the case of `CCCCCCCCC(C)c1cccc(C(C)CCCCCCCC)c1O` (centres undefined), the T/C reads like this: under setting [5], 103 % of control; under setting [6], 103 % of control.
Turning to `CC(C(=O)c1ccc(-c2ccccc2)cc1)C(Cl)c1ccccc1` (centres undefined), the T/C by setting is: under setting [2], 95 % of control; under setting [3], 95 % of control; under setting [4], 100 % of control.
Consider `COc1ccc(NC(=O)Nc2c(Oc3ccc(Cl)cc3)ccc(Cl)c2S(=O)(=O)O)cc1Cl`, for which the T/C is 98 % of control under setting [7]; 87 % of control (dose: 100.0 mg/kg/injection, schedule: Q01DX009 (ip), vehicle: saline); 93 % of control under setting [2]; 91 % of control under setting [3].
Consider `O=C(OCCO)c1oc2ccccc2c1OCCO`, for which the T/C under setting [8] was 98 % of control, the T/C under setting [5] was 98 % of control and the T/C under setting [6] was 102 % of control.
For the molecule `COC(=O)C(Cc1c[nH]c2ccccc12)NC(=O)C(Cc1c[nH]c2ccccc12)NC(=O)OC(C)(C)C` (centres undefined), the T/C by setting is: under setting [8], 87 % of control; under setting [9], 98 % of control; under setting [5], 96 % of control; (dose: 200.0 mg/kg/injection, schedule: Q01DX009 (ip), vehicle: saline with Tween-80) 96 % of control; under setting [6], 100 % of control; under setting [10], 104 % of control.
Consider `OCCCc1nc2ccccc2[nH]1`, for which the T/C was 102 % of control under setting [2], 107 % of control under setting [3] and 98 % of control under setting [4].
For `S=P(c1ccccc1)(N1CC1)N1CC1`, the T/C was 102 % of control (dose: 6.25 mg/kg/injection, schedule: Q01DX009 (ip), vehicle: Klucel (hydroxypropylcellulose) (HPC)); 95 % of control (dose: 6.25 mg/kg/injection, schedule: Q01DX009 (ip), vehicle: other); 102 % of control (dose: 12.5 mg/kg/injection, schedule: Q01DX009 (ip), vehicle: Klucel (hydroxypropylcellulose) (HPC)); 118 % of control and 104 % of control (dose: 12.5 mg/kg/injection, schedule: Q01DX009 (ip), vehicle: other); 115 % of control (dose: 22.0 mg/kg/injection, schedule: Q01DX009 (ip), vehicle: other); 104 % of control under setting [11]. The T/C is, setting by setting: (dose: 25.0 mg/kg/injection, schedule: Q01DX009 (ip), vehicle: other) 106 % of control; (dose: 25.0 mg/kg/injection, schedule: Q04DX002 (ip), vehicle: saline with Tween-80) 96 % of control; (dose: 44.0 mg/kg/injection, schedule: Q04DX002 (ip), vehicle: other) 97 % of control; (dose: 44.0 mg/kg/injection, schedule: Q04DX003 (ip), vehicle: other) 106 % of control; under setting [12], 118 % of control; (dose: 50.0 mg/kg/injection, schedule: Q01DX009 (ip), vehicle: other) 123 % of control. Also, the T/C (dose: 50.0 mg/kg/injection, schedule: Q04DX002 (ip), vehicle: saline with Tween-80) was 103 % of control and 106 % of control; the T/C (dose: 66.0 mg/kg/injection, schedule: Q04DX002 (ip), vehicle: other) was 109 % of control; the T/C (dose: 66.0 mg/kg/injection, schedule: Q04DX003 (ip), vehicle: other) is 118 % of control; the T/C (dose: 75.0 mg/kg/injection, schedule: Q01DX009 (ip), vehicle: other) is 101 % of control; the T/C (dose: 100.0 mg/kg/injection, schedule: Q04DX002 (ip), vehicle: other) is 115 % of control; the T/C (dose: 100.0 mg/kg/injection, schedule: Q04DX002 (ip), vehicle: saline with Tween-80) was 117 % of control. For the same molecule, the T/C (dose: 100.0 mg/kg/injection, schedule: Q04DX003 (ip), vehicle: other) is 108 % of control; the T/C (dose: 118.0 mg/kg/injection, schedule: Q01DX001 (ip), vehicle: other) is 100 % of control; the T/C (dose: 150.0 mg/kg/injection, schedule: Q04DX002 (ip), vehicle: other) is 103 % of control; the T/C (dose: 178.0 mg/kg/injection, schedule: Q01DX001 (ip), vehicle: other) was 97 % of control; the T/C (dose: 266.0 mg/kg/injection, schedule: Q01DX001 (ip), vehicle: other) is 109 % of control; the T/C (dose: 400.0 mg/kg/injection, schedule: Q01DX001 (ip), vehicle: other) is 100 % of control.
On to `O=S(=O)(F)c1ccc(-c2cc(Cl)c3cc(F)ccc3n2)cc1`, for which the T/C runs as follows: under setting [8], 98 % of control; under setting [5], 98 % of control; under setting [6], 94 % of control.
For `C=CCC12CCCCC1=CC(=O)CC2` (centres undefined), the T/C is 97 % of control under setting [2], 100 % of control under setting [3] and 102 % of control under setting [4].
For the molecule `CCCNC(=O)Oc1c(C(C)C)ccc(C)c1Cl`, the T/C runs as follows: (dose: 100.0 mg/kg/injection, schedule: Q04DX003 (ip), vehicle: saline) 98 % of control; (dose: 200.0 mg/kg/injection, schedule: Q04DX003 (ip), vehicle: saline) 101 % of control; (dose: 400.0 mg/kg/injection, schedule: Q04DX003 (ip), vehicle: saline) 95 % of control.
On to `CC(=O)c1c(O)c(C)c(O)c2c1OC1=CC(=O)C(C(C)=O)C(=O)C12C` (centres undefined), for which the T/C under setting [11] is 93 % of control; the T/C under setting [12] was 93 % of control; the T/C (dose: 100.0 mg/kg/injection, schedule: Q01DX009 (ip), vehicle: Klucel (hydroxypropylcellulose) (HPC)) is 96 % of control.
As to `COc1ccc(NC(=O)Oc2ccc(Cl)c(C)c2)cc1`, the T/C under setting [9] is 89 % of control and the T/C under setting [10] was 92 % of control.
With `ClCCN(CC#CCCCC#CCN(CCCl)CCCl)CCCl`, the T/C by setting is: (dose: 3.12 mg/kg/injection, schedule: Q01DX009 (ip), vehicle: saline) 121 % of control; (dose: 6.25 mg/kg/injection, schedule: Q01DX009 (ip), vehicle: saline) 119 % of control and 121 % of control; (dose: 25.0 mg/kg/injection, schedule: Q01DX009 (ip), vehicle: saline) 162 % of control; under setting [7], 89 % of control and 104 % of control.

Source of the values: PubChem BioAssay AID256 (DTP/NCI, 2004).
